# Measurements: patent US6958141B2, “Rhenium and technetium complexes containing a hypoxia-localizing moiety” (Bracco International B.V., priority 1991, dated 2005)
# Experiments:
# [1] = tested on: hypoxic ischemic border zone; assay: Rabbit focal myocardial ischemia model (LAD occlusion), double-label autoradiography; type: in vivo; details: permanent LAD coronary artery ligation, intravenous tracer, heart sections, listed as 99mTc complex of the ligand described in Example 1
# Protocol: A model of focal myocardial ischemia in the rabbit was developed, using permanent ligation of the left anterior descending (LAD) coronary artery. The model consisted of two studies. In the first, relative regional myocardial blood flow (MBF) and relative regional myocardial rate of glucose metabolism (MMRgl) were determined by autoradiography using a double-label study with the flow tracer ^99mTcCl(CDO)3MeB (R. K. Narra et al., J. Nucl. Med., 1989; 30:1830-1837) and ^14C-deoxy-glucose for MMRgl (L. Sokoloff et al., J. Neurochem., 1977, 28, 897-916). ^14C-deoxyglucose and the ^99mTc-hypoxia-localizing tracer were administered to a second group of rabbits with LAD coronary artery occlusion.
# After the surgical preparation and 20 minutes of LAD occlusion, ^14C-deoxyglucose (130-150 μCi) was injected as an intravenous bolus, and timed arterial blood samples were obtained. Twenty-five minutes later, ^99mTcCl(CDO)3MeB (10-12 mCi) was administered intravenously. Five minutes later, the rabbits were sacrificed by intravenous injection of Nembutal and potassium chloride. The heart was excised, frozen in liquid Freon-22, and 20 μm coronal sections obtained with a Microtome. Autoradiographs were obtained on all sections. For the first exposure (˜14 hours duration) of Kodak XAR film, extra heavy duty aluminum foil was interposed between the tissue and film to block completely the radiation emanating from ^14C to obtain the MBF information derived from ^99mTcCl(CDO)3MeB alone. After three days (to allow for decay of ^99mTc); a second autoradiograph was obtained without foil. The second exposure lasted 6-8 days, and,provided an image of the regional distribution of ^14C-deoxyglucose.
# In a separate experiment using the rabbit LAD occlusion model and the double-label autoradiography procedures described above, the performance of the ^99mTc complex of the ligand described in Example 1 was compared to that of ^14C-misonidazole.
# hypoxic border zone = assay: Rat focal cerebral ischemia model (MCA occlusion), double-label autoradiography; type: in vivo, spontaneously hypertensive rats (SHR); details: SHR, injected 1 hour or five days after MCA occlusion, both time points
# Protocol: A model of focal cerebral ischemia involving tandem occlusion of the internal carotid artery and the ipsilateral middle cerebral artery (MCA) in spontaneously hypertensive rats (SHR) was characterized using the double-label autoradiography procedure described in Example 10. […] Following surgery, which was performed under Halothane anesthesia, the rats were allowed to recover and one hour after the MCA occlusion, ^14C-deoxyglucose was injected as an IV bolus and timed arterial samples were obtained. Twenty-five minutes after ^14C-deoxyglucose injection, ^99mTcCl(DMG)32MP was injected as an IV bolus and the rat was sacrificed 15 seconds later. The brain was rapidly removed and sections and autoradiograms were obtained as described in Example 10. As found in Example 10 for the rabbit LAD occlusion model, the ischemic territory was bordered by a rim of tissue in which glycolysis was elevated. […] Nevertheless, it was clear that the ischemic region is surrounded by a border zone of increased glycolysis. In a second series of experiments, the ^99mTc complex of the ligand described in Example 1 and ^14C-deoxyglucose were co-injected 1 hour or five days after MCA occlusion.
# [2] = tested on: Isolated Perfused Rat Heart; assay: Isolated perfused heart studies (Langendorff), retention of tracer; parameters: species or system male Sprague Dawley rats; details: radioactivity 40 minutes after end of 20 minute infusion divided by peak, n=4
# Protocol: Hearts were excised from male Sprague Dawley rats (275-325 g) and were perfused retrogradely using the Langendorff method (O. Langendorff, Pfleugers Arch. ges. Physiol, 61, 291, […]) with modifications described previously (W. Rumsey, D. F. Wilson and M. Erecinska, Am. J. Physiol., 253 (Heart Circ. Physiol. 22): H1098, 1987) in the isolated state at 37° C. with Krebs-Henseleit buffer. The perfusate contained [in mM] NaCl, KCl [4.7], CaCl2 [1.8], Na2EDTA [0.5], KH2PO4 [1.2], MgSO4 [1.2], NaHCO3 [25], glucose, pyruvate [0.2], and insulin (12 IU/L) and was equilibrated with O2:CO2 (95:5) (global normoxia) or N2:CO2 (95:5) (global hypoxia). The hearts were paced continuously at 5 Hz. […]
# For determination of oxygen consumption, a cannula was placed in the right ventricle via the pulmonary artery. A pump removed a small fraction of the coronary effluent at 1 mL/min., and its oxygen concentration was monitored continuously by an in-line Clark-type electrode. […] Coronary flow was measured by collecting the effluent from the right and left pulmonary arteries in a 10 mL graduated cylinder. Oxygen consumption was calculated from the product of the influent-effluent oxygen concentration difference and the coronary flow. During perfusion with hypoxic medium, only the effluent oxygen concentration was recorded. […]
substance,measurement,setting,value
"[^99mTc]Oxo[[3,3,9,9-tetramethyl-1-(2-nitro-1H-imidazo-1-yl)-4,8-diazaundecane-2,10-dione dioximato]-(3-)-N,N′,N″,N′″]technetium(V) [^99mTc complex from ligand in Ex. 1]",regional myocardial distribution pattern (autoradiography),[1],high uptake in the hypoxic border zone of the ischemic territory and low uptake in normoxic regions
same,uptake in brain autoradiograms,hypoxic border zone,increased uptake in the hypoxic border zone relative to surrounding normoxic tissue
same,"% Retention of Tracer in the Isolated Perfused Rat Heart, Hypoxia",[2]; N2:CO2 (95:5),65.3 ± 3%
same,"% Retention of Tracer in the Isolated Perfused Rat Heart, Normoxia",[2]; O2:CO2 (95:5),33.5 ± 2.5%
